In series [1] the test system is Phakopsora pachrhizi. Description: Example A3: fungicidal activity against Phakopsora pachrhizi / soybean / leaf disc preventative (Asian soybean rust). Format: in vivo. Conditions: Phakopsora pachyrhizi, foliar, 200 ppm in the applied formulation, soybean leaf disks, read-out: disease control. Here is the method:
(§1) Leaf disks or leaf segments of various plant species are cut from plants grown in a greenhouse. The cut leaf disks or segments are placed in multiwell plates (24-well format) onto water agar. The leaf disks are sprayed with a test solution before (preventative) or after (curative) inoculation. Compounds to be tested are prepared as DMSO solutions (max. 10 mg/mL) which are diluted to the appropriate concentration with 0.025% Tween20 just before spraying. The inoculated leaf disks or segments are incubated under defined conditions (temperature, relative humidity, light, etc.) according to the respective test system. A single evaluation of disease level is carried out 3 to 14 days after inoculation, depending on the pathosystem. Percent disease control relative to the untreated check leaf disks or segments is then calculated.
Soybean leaf disks are placed on water agar in multiwell plates (24-well format) and sprayed with the formulated test compound diluted in water. One day after application leaf discs are inoculated by spraying a spore suspension on the lower leaf surface. After an incubation period in a climate cabinet of 24-36 hours in darkness at 20° C. and 75% rh leaf disc are kept at 20° C. with 12 h light/day and 75% rh. The activity of a compound is assessed as percent disease control compared to untreated when an appropriate level of disease damage appears in untreated check leaf disks (12 to 14 days after application).

Series [2] deals with Glomerella lagenarium (Colletotrichum lagenarium). Kind of series: Example A4: fungicidal activity against Glomerella lagenarium (Colletotrichum lagenarium) liquid culture / cucumber / preventative (anthracnose). As to conditions: Colletotrichum orbiculare, 20 ppm in the applied formulation, growth measured photometrically 3 to 4 days after application, read-out: disease control. Format: cell-based. Here is the method: Mycelia fragments or conidia suspensions of a fungus prepared either freshly from liquid cultures of the fungus or from cryogenic storage, are directly mixed into nutrient broth. DMSO solutions of the test compound (max. 10 mg/mL) are diluted with 0.025% Tween20 by a factor of 50 and 10 μL of this solution is pipetted into a microtiter plate (96-well format). The nutrient broth containing the fungal spores/mycelia fragments is then added to give an end concentration of the tested compound. The test plates are incubated in the dark at 24° C. and 96% relative humidity. The inhibition of fungal growth is determined photometrically after 2 to 7 days, depending on the pathosystem, and percent antifungal activity relative to the untreated check is calculated. Conidia of the fungus from cryogenic storage are directly mixed into nutrient broth (PDB—potato dextrose broth). After placing a (DMSO) solution of test compound into a microtiter plate (96-well format), the nutrient broth containing the fungal spores is added.

Series [3] has as its system Puccinia recondita f. sp. tritici. Description: Example A1: fungicidal activity against Puccinia recondita f. sp. tritici / wheat / leaf disc preventative (brown rust). Conditions: foliar, 200 ppm in the applied formulation, wheat leaf segments, compared to untreated, read-out: disease control. The format is in vivo. The procedure: as §1
Wheat leaf segments cv. Kanzler were placed on agar in multiwell plates (24-well format) and sprayed with the formulated test compound diluted in water. The leaf disks were inoculated with a spore suspension of the fungus 1 day after application. The inoculated leaf segments were incubated at 19° C. and 75% relative humidity (rh) under a light regime of 12 hours light/12 hours darkness in a climate cabinet and the activity of a compound was assessed as percent disease control compared to untreated when an appropriate level of disease damage appears in untreated check leaf segments (7 to 9 days after application).

For series [4] the test system is unchanged. Kind of series: Example A2: fungicidal activity against Puccinia recondita f. sp. tritici / wheat / leaf disc curative (brown rust). The format is in vivo. Conditions: foliar, 24 h, 200 ppm in the applied formulation, curative (applied 1 day after inoculation), wheat leaf segments, read-out: disease control. Here is the method: as §1
Wheat leaf segments cv. Kanzler are placed on agar in multiwell plates (24-well format). The leaf segments are then inoculated with a spore suspension of the fungus. Plates were stored in darkness at 19° C. and 75% relative humidity. The formulated test compound diluted in water was applied 1 day after inoculation. The leaf segments were incubated at 19° C. and 75% relative humidity under a light regime of 12 hours light/12 hours darkness in a climate cabinet and the activity of a compound was assessed as percent disease control compared to untreated when an appropriate level of disease damage appears in untreated check leaf segments (6 to 8 days after application).

Take `FC(F)(F)c1nc(-c2ccc(Cn3nnc4ncccc43)cc2)no1` [X.09, 3-[4-(triazolo[4,5-b]pyridin-1-ylmethyl)phenyl]-5-(trifluoromethyl)-1,2,4-oxadiazole]: the pest or weed control at 200 ppm in series [1], in series [3] and in series [4] was no less than 80% in each case. In series [2], the inhibition of growth at 20 ppm was no less than 80%.
With `NC(=O)c1cnn(Cc2ccc(-c3noc(C(F)(F)F)n3)cc2)c1` [X.19, 1-[[4-[5-(trifluoromethyl)-1,2,4-oxadiazol-3-yl]phenyl]methyl]pyrazole-4-carboxamide], the pest or weed control at 200 ppm in series [1], in series [3] and in series [4] was no less than 80% each time. The inhibition of growth at 20 ppm in series [2] was no less than 80%.
For the compound `CCOC(=O)c1cnn(C(C)c2ccc(-c3noc(C(F)(F)F)n3)cc2)c1` (stereo not shown) [X.21, ethyl 1-[1-[4-[5-(trifluoromethyl)-1,2,4-oxadiazol-3-yl]phenyl]ethyl]pyrazole-4-carboxylate], the pest or weed control at 200 ppm in series [1], in series [3] and in series [4] was no less than 80% each time. In series [2], the inhibition of growth at 20 ppm was no less than 80%.
What is called melting point is the temperature of the solid-liquid transition. `FC(F)(F)c1nc(-c2ccc(Cn3nc4cccnc4n3)cc2)no1` [X.10, 3-[4-(triazolo[4,5-b]pyridin-2-ylmethyl)phenyl]-5-(trifluoromethyl)-1,2,4-oxadiazole] returned a melting point of 121 to 122 °C. For the same compound, the pest or weed control at 200 ppm in series [1] is no less than 80%. Besides, in series [2], the inhibition of growth at 20 ppm is no less than 80%. Also, in series [3], the pest or weed control at 200 ppm is no less than 80%. For the same compound, the pest or weed control at 200 ppm in series [4] is no less than 80%.
The compound `CNC(=O)c1cnn(Cc2ccc(-c3noc(C(F)(F)F)n3)cc2)c1` [X.06, N-methyl-1-[[4-[5-(trifluoromethyl)-1,2,4-oxadiazol-3-yl]phenyl]methyl]pyrazole-4-carboxamide] gave a melting point of 156 to 161 °C. Further, the pest or weed control at 200 ppm in series [1] was no less than 80%. Also, in series [2], the inhibition of growth at 20 ppm is no less than 80%. In addition, in series [3], the pest or weed control at 200 ppm was no less than 80%. Also, the pest or weed control at 200 ppm in series [4] is no less than 80%.
Turning to `CCNC(=O)c1cnn(Cc2ccc(-c3noc(C(F)(F)F)n3)cc2)c1` [X.18, N-ethyl-1-[[4-[5-(trifluoromethyl)-1,2,4-oxadiazol-3-yl]phenyl]methyl]pyrazole-4-carboxamide], the melting point was 166 to 176 °C. Further, the pest or weed control at 200 ppm in series [1] was no less than 80%. The inhibition of growth at 20 ppm in series [2] is no less than 80%. Besides, the pest or weed control at 200 ppm in series [3] was no less than 80%. The pest or weed control at 200 ppm in series [4] is no less than 80%.
`CCN(CC)C(=O)c1cnn(Cc2ccc(-c3noc(C(F)(F)F)n3)cc2)c1` [X.14, N,N-diethyl-1-[[4-[5-(trifluoromethyl)-1,2,4-oxadiazol-3-yl]phenyl]methyl]pyrazole-4-carboxamide] gave a melting point of 86 to 96 °C. For the same compound, in series [1], the pest or weed control at 200 ppm is no less than 80%. Further, the inhibition of growth at 20 ppm in series [2] was no less than 80%. Moreover, the pest or weed control at 200 ppm in series [3] was no less than 80%. The pest or weed control at 200 ppm in series [4] is no less than 80%.
On to `CCOC(=O)c1cnn(Cc2ccc(-c3noc(C(F)(F)F)n3)c(F)c2)c1` [X.13, ethyl 1-[[3-fluoro-4-[5-(trifluoromethyl)-1,2,4-oxadiazol-3-yl]phenyl]methyl]pyrazole-4-carboxylate], for which the melting point is 131 to 135 °C. In addition, the pest or weed control at 200 ppm in series [1] was no less than 80%. For the same compound, the inhibition of growth at 20 ppm in series [2] was no less than 80%. For the same compound, in series [3], the pest or weed control at 200 ppm was no less than 80%.
Consider `CON=Cc1cnn(Cc2ccc(-c3noc(C(F)(F)F)n3)cc2)c1` [X.20, N-methoxy-1-[1-[[4-[5-(trifluoromethyl)-1,2,4-oxadiazol-3-yl]phenyl]methyl]pyrazol-4-yl]methanimine], for which the pest or weed control at 200 ppm in series [1], in series [3] and in series [4] was no less than 80% each time. Moreover, the inhibition of growth at 20 ppm in series [2] is no less than 80%.
As for `N#Cc1ncnn1Cc1ccc(-c2noc(C(F)(F)F)n2)cc1` [X.02, 2-[[4-[5-(trifluoromethyl)-1,2,4-oxadiazol-3-yl]phenyl]methyl]-1,2,4-triazole-3-carbonitrile], the pest or weed control at 200 ppm in series [1], in series [3] and in series [4] was no less than 80% each time. In addition, in series [2], the inhibition of growth at 20 ppm is no less than 80%.
The compound `O=C(NC1CC1)c1cnn(Cc2ccc(-c3noc(C(F)(F)F)n3)cc2)c1` [X.04, N-cyclopropyl-1-[[4-[5-(trifluoromethyl)-1,2,4-oxadiazol-3-yl]phenyl]methyl]pyrazole-4-carboxamide] registered a melting point of 189 to 194 °C. Also, the pest or weed control at 200 ppm in series [1] was no less than 80%. Moreover, the inhibition of growth at 20 ppm in series [2] was no less than 80%. In series [3], the pest or weed control at 200 ppm was no less than 80%. Moreover, in series [4], the pest or weed control at 200 ppm was no less than 80%.
For `CCOC(=O)c1cnn(Cc2ccc(-c3noc(C(F)(F)F)n3)cc2)c1` [X.03, ethyl 1-[[4-[5-(trifluoromethyl)-1,2,4-oxadiazol-3-yl]phenyl]methyl]pyrazole-4-carboxylate], the pest or weed control at 200 ppm in series [1], in series [3] and in series [4] was no less than 80% each time. In series [2], the inhibition of growth at 20 ppm was no less than 80%.
With `COC(=O)c1cnn(Cc2ccc(-c3noc(C(F)(F)F)n3)cc2)c1` [X.12, methyl 1-[[4-[5-(trifluoromethyl)-1,2,4-oxadiazol-3-yl]phenyl]methyl]pyrazole-4-carboxylate], the melting point was in the range of 122 to 129 °C. For the same compound, the pest or weed control at 200 ppm in series [1] was no less than 80%. Moreover, the inhibition of growth at 20 ppm in series [2] was no less than 80%. The pest or weed control at 200 ppm in series [3] was no less than 80%. For the same compound, in series [4], the pest or weed control at 200 ppm was no less than 80%.
As to `FC(F)(F)c1nc(-c2ccc(Cn3nnc4cccnc43)cc2)no1` [X.11, 3-[4-(triazolo[4,5-b]pyridin-3-ylmethyl)phenyl]-5-(trifluoromethyl)-1,2,4-oxadiazole], the melting point lay within 143 to 144 °C. For the same compound, the pest or weed control at 200 ppm in series [1] is no less than 80%. Besides, the inhibition of growth at 20 ppm in series [2] was no less than 80%. Further, the pest or weed control at 200 ppm in series [3] is no less than 80%. In addition, in series [4], the pest or weed control at 200 ppm is no less than 80%.
`CON(C)C(=O)c1cnn(Cc2ccc(-c3noc(C(F)(F)F)n3)cc2)c1` [X.15, N-methoxy-N-methyl-1-[[4-[5-(trifluoromethyl)-1,2,4-oxadiazol-3-yl]phenyl]methyl]pyrazole-4-carboxamide]: the melting point fell in the range of 102 to 112 °C. For the same compound, the pest or weed control at 200 ppm in series [1] was no less than 80%. Further, the inhibition of growth at 20 ppm in series [2] is no less than 80%. The pest or weed control at 200 ppm in series [3] is no less than 80%. Besides, in series [4], the pest or weed control at 200 ppm was no less than 80%.
As to `CCSc1ncnn1Cc1ccc(-c2noc(C(F)(F)F)n2)cc1` [X.08, 3-[4-[(5-ethylsulfanyl-1,2,4-triazol-1-yl)methyl]phenyl]-5-(trifluoromethyl)-1,2,4-oxadiazole], the pest or weed control at 200 ppm in series [1], in series [3] and in series [4] was no less than 80% throughout. Moreover, the inhibition of growth at 20 ppm in series [2] was no less than 80%.
`CN(C)c1ncn(Cc2ccc(-c3noc(C(F)(F)F)n3)cc2)n1` [X.07, N,N-dimethyl-1-[[4-[5-(trifluoromethyl)-1,2,4-oxadiazol-3-yl]phenyl]methyl]-1,2,4-triazol-3-amine]: the pest or weed control at 200 ppm in series [1], in series [3] and in series [4] was no less than 80% each time. The inhibition of growth at 20 ppm in series [2] is no less than 80%.
